Reference: patent US20120129870A1, “PIPERAZINYL DERIVATIVES USEFUL AS MODULATORS OF THE NEUROPEPTIDE Y2 RECEPTOR” (priority 2007, published 2012)

Assays:
NPY Y2 receptor [1] = target: T1, NPY Y2 receptor (Homo sapiens, UniProt P49146); assay: Neuropeptide Y2 radioligand binding assay ([125I]PYY, KAN-Ts membranes); set-up: endogenous in cells; host or cells: KAN-Ts cells (membrane preparation); details: KAN-Ts membranes endogenously expressing Y2, [125I]PYY (80 pM), 1 h at rt
T1 sequence (P49146 1-381): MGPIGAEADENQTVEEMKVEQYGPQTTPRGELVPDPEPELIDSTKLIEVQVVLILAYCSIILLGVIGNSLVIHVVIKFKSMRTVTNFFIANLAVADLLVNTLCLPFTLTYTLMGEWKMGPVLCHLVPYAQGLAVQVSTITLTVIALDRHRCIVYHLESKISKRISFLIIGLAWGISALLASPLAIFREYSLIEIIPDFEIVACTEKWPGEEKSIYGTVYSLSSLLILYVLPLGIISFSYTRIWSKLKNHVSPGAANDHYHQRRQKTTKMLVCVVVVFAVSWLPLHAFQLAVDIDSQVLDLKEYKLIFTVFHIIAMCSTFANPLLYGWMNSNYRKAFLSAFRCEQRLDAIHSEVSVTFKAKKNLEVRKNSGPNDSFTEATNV
Procedure, shortened: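 Membranes from KAN-Ts cells with endogenous Y2 receptors, incubated with 80 pM [125I]PYY ± compound for 1 h at rt in HEPES/NaCl/CaCl2/MgSO4 buffer, then filtered and counted. Nonspecific binding defined with […]. IC50 from sigmoidal fit; Ki = IC50/(1+C/KD).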

NPY Y2 receptor [2] = target: T1, NPY Y2 receptor; assay: Neuropeptide Y2 pKB assay (FLIPR, KAN-Ts cells stably expressing chimeric G proteins); type: cell-based; details: apparent pKB, modified Cheng-Prusoff correction
Method: The assay was performed using the fluorimetric imaging plate reader (FLIPR) format as described in Dautzenberg, F. M., Biochemical Pharmacology 2005, 69, 1493.
KAN-Ts cells stably expressing chimeric G proteins were seeded at a density of 100,000 cells into poly-d-lysine coated 384-well blackwall, clear-bottom microtiter plates (Corning, N.Y.). One day later, the medium was removed and 50 μl loading medium DMEM high glucose, without serum, supplemented with 10 mM HEPES-acid, 0.1% BSA, 5 mM probenecid and 2 μM Fluo-3AM was added. Cells were loaded for 1 h at 37° C., washed twice with 50 μl assay buffer (5 mM HEPES-acid, 140 mM NaCl, 1 mM MgCl2, 5 mM KCl, 10 mM glucose) and then 30 μl assay buffer was added. Cells were further pre-incubated at room temperature before adding agonists or agonists plus antagonists in 20 μl assay buffer and then measured on a T-channel fluorometric imaging plate reader (FLIPR, Molecular Devices, Sunnyvale, Calif.). Antagonistic potency values were converted to apparent pKB values using a modified Cheng-Prusoff correction. Apparent pKB was calculated as pKB=−log IC50/1+[conc agonist/EC50].

SMILES	IC50 (NPY Y2 receptor [1])	Kb (NPY Y2 receptor [2])
CCC(CC)C(=O)Nc1ccc(N2CCN(C(c3ccccc3)c3noc(C(C)C)n3)CC2)c(F)c1 (centres unmarked) [Compound 82, 2-Ethyl-N-(3-fluoro-4-{4-[(5-isopropyl-[1,2,4]-oxadiazol-3-yl)-phenyl-methyl]-piperazin-1-yl}-phenyl)-butyramide]	22 nM	50.1 nM
CCC(CC)C(=O)Nc1ccc(N2CCN(C(c3ccccc3)c3ccccc3)CC2)c(F)c1 [Compound 4, N-[4-(4-Benzhydryl-piperazin-1-yl)-3-fluoro-phenyl]-2-ethyl-butyramide]	33 nM	79.4 nM
Cc1noc(C)c1C(=O)Nc1ccc(N2CCN(C(c3ccccc3)c3ncco3)CC2)c(F)c1 (centres unmarked) [Compound 113, 3,5-Dimethyl-isoxazole-4-carboxylic acid {3-fluoro-4-[4-(oxazol-2-yl-phenyl-methyl)-piperazin-1-yl]-phenyl}-amide]	140 nM	200 nM
CCC(CC)C(=O)Nc1ccc(N2CCN(C(c3ccc(C#N)cc3)c3ncco3)CC2)c(C#N)c1 (centres unmarked) [Compound 145, N-(3-Cyano-4-{4-[(4-cyano-phenyl)-oxazol-2-yl-methyl]-piperazin-1-yl}-phenyl)-2-ethyl-butyramide]	33 nM	63.1 nM
CCC(CC)C(=O)Nc1ccc(N2CCN(C(c3ccccc3)c3ncco3)CC2)c(C)c1 (centres unmarked) [Compound 85, 2-Ethyl-N-{3-methyl-4-[4-(oxazol-2-yl-phenyl-methyl)-piperazin-1-yl]-phenyl}-butyramide]	75 nM	126 nM
CC[C@@H](C)C(=O)Nc1ccc(N2CCN(C(c3ccccc3)c3ncco3)CC2)c(F)c1 (stereo in doubt) [Compound 91, N-{3-Fluoro-4-[4-(oxazol-2-yl-phenyl-methyl)-piperazin-1-yl]-phenyl}-2-methyl-butyramide]	240 nM	158 nM
CCC(CC)C(=O)Nc1ccc(N2CCN(C(c3ccccc3)c3ncco3)CC2)c(F)c1 (single isomer, unassigned) [Compound 59, 2-Ethyl-N-{3-fluoro-4-[4-(oxazol-2-yl-phenyl-methyl)-piperazin-1-yl]-phenyl}-butyramide]	96 nM	200 nM
CCC(CC)C(=O)Nc1ccc(N2CCN(C(c3ccccc3)c3nc(C)no3)CC2)c(F)c1 (centres unmarked) [Compound 2, 2-Ethyl-N-(3-fluoro-4-{4-[(3-methyl-[1,2,4]-oxadiazol-5-yl)-phenyl-methyl]-piperazin-1-yl}phenyl)-butyramide]	27 nM	39.8 nM
CCC(CC)C(=O)Nc1ccc(N2CCN(C(c3cccc(F)c3)c3ncco3)CC2)c(F)c1 (centres unmarked) [Compound 132, 2-Ethyl-N-(3-fluoro-4-{4-[(3-fluoro-phenyl)-oxazol-2-yl-methyl]-piperazin-1-yl}-phenyl)-butyramide]	45 nM	63.1 nM
CCC(CC)C(=O)Nc1ccc(N2CCN(C(c3ccc(F)cc3)c3ncco3)CC2)c(C#N)c1 (centres unmarked) [Compound 139, N-(3-Cyano-4-{4-[(4-fluoro-phenyl)-oxazol-2-yl-methyl]-piperazin-1-yl}-phenyl)-2-ethyl-butyramide]	21 nM	25.1 nM
CCC(CC)C(=O)Nc1ccc(N2CCN(C(c3ccccc3)c3noc(C)n3)CC2)c(F)c1 (centres unmarked) [Compound 239, 2-Ethyl-N-(3-fluoro-4-{4-[(5-methyl-[1,2,4]-oxadiazol-3-yl)-phenyl-methyl]-piperazin-1-yl}-phenyl)-butyramide]	13 nM	12.6 nM
CCC(CC)C(=O)Nc1ccc(N2CCN(C(c3ccccc3)c3noc(-c4ccccc4)n3)CC2)c(F)c1 (centres unmarked) [Compound 240, 2-Ethyl-N-(3-fluoro-4-{4-[phenyl-(5-phenyl-[1,2,4]-oxadiazol-3-yl)-methyl]-piperazin-1-yl}-phenyl)-butyramide]	39 nM	126 nM
CCC(CC)C(=O)Nc1ccc(N2CCN(C(c3ccccc3)c3nccs3)CC2)c(F)c1 (centres unmarked) [Compound 39, 2-Ethyl-N-{3-fluoro-4-[4-(phenyl-thiazol-2-yl-methyl)-piperazin-1-yl]-phenyl}-butyramide]	28 nM	63.1 nM
